Results published in patent US8093281B2, “Indazoles as glucocorticoid receptor ligands” (Glaxo Group Limited, priority 2005, dated 2012).

Legend:
Progesterone Receptor = biological target: T1, Progesterone Receptor (Homo sapiens, UniProt P06401); assay: Assay for progesterone receptor activity (CV-1 cells transduced with PRb-BacMam and MMTV-BacMam); format: cell-based; conditions: 24 h, read-out: pEC50, progesterone receptor activity (converted)
T1 construct: expressed in transfected cells; host or cells: CV-1 cells transduced with PRb-BacMam and MMTV-BacMam (luciferase reporter)
T1 sequence (P06401 1-933): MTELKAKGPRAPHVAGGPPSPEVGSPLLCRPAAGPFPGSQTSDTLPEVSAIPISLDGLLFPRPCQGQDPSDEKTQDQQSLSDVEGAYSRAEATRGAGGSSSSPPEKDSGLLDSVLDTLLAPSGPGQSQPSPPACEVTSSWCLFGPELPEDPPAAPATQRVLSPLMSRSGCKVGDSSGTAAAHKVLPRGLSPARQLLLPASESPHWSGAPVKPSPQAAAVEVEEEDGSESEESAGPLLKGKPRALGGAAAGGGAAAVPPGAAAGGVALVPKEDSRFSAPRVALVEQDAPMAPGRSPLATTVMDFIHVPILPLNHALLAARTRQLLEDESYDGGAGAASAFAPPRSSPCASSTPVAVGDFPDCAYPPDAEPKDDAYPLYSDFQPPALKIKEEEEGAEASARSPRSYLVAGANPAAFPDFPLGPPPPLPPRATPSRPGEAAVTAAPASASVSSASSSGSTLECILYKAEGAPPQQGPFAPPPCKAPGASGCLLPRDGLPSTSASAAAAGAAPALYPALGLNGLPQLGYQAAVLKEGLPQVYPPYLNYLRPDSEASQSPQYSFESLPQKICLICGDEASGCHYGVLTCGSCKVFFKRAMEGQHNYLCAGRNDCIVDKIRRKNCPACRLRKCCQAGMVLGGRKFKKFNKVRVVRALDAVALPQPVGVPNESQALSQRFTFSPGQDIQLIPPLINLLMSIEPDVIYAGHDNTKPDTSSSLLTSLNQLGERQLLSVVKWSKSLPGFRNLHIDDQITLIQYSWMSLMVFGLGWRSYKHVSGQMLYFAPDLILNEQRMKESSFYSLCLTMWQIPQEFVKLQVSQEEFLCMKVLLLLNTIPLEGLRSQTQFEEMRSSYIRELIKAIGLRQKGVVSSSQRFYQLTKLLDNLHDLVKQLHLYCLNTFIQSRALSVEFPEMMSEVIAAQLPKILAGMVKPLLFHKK
Method: A T225 flask of CV-1 cells at a density of 80% confluency was washed with PBS, detached from the flask using 0.25% trypsin and counted using a Sysmex KX-21N. Cells were diluted in DMEM containing 10% Hyclone, 2 mM […] and 1% Pen/Strep at 140 cells/μl and transduced with 10% PRb-BacMam and 10% MMTV-BacMam. […] of suspension cells were dispensed to each well of white Nunc 384-well plates, containing compounds at the required concentration. After 24 h 10 μl of Steady Glo were added to each well of the plates. Plates were incubated in the dark for 10 min before reading them on a Viewlux reader. Dose response curves were constructed from which pEC50 values were estimated.

NFkB activity = assay: Glucocorticoid mediated transrepression of NFkB activity (A549 cells, ELAM promoter alkaline phosphatase reporter, TNFα stimulated); format: cell-based; conditions: Homo sapiens, A549, 16 h, Human A549 lung epithelial cells, 3 ng/ml human recombinant TNFα, read-out: pEC50, transrepression of NFkB activity (converted)
Description: Human A549 lung epithelial cells were engineered to contain a secreted placental alkaline phosphatase gene under the control of the distal region of the NFkB dependent ELAM promoter as previously described in Ray, K. P., Farrow, S., Daly, M., Talabot, F. and Searle, N. “Induction of the E-selectin promoter by interleukin 1 and tumour necrosis factor alpha, and inhibition by glucocorticoids” Biochemical Journal (1997) 328: 707-15.
Compounds were solvated and diluted in DMSO, and transferred directly into assay plates such that the final concentration of DMSO was 0.7%. Following the addition of cells (40K per well), plates were incubated for 1 hr prior to the addition of 3 ng/ml human recombinant TNFα. Following continued incubation for 16 hr, alkaline phosphatase activity was determined by measuring the change in optical density at 405 nm with time following the addition of 0.7 volumes of assay buffer (1 mg/ml p-nitrophenylphosphate dissolved in 1M diethanolamine, 0.28M NaCl, 0.5 mM MgCl2). Dose response curves were constructed from which EC50 values were estimated.

| EC50 (Progesterone Receptor) | EC50 (NFkB activity) | Compound |
| --- | --- | --- |
| > 10 µM | < 0.00316 µM | COc1ccc(-n2ncc3c(NCC(O)(CC(C)(C)c4cc(F)ccc4OC)C(F)(F)F)cccc32)cc1 (racemic) [Example 3, 1,1,1-Trifluoro-4-[5-fluoro-2-(methyloxy)phenyl-4-methyl-2-({1-[4-(methyloxy)phenyl]-1H-indazol-4-yl}amino)methyl]-2-pentanol] |
| > 10 µM | < 0.00316 µM | COc1ccc(F)cc1C(C)(C)CC(O)(CNc1cccc2c1cnn2-c1ccccc1)C(F)(F)F (racemic) [Example 7, 1,1,1-Trifluoro-4-[5-fluoro-2-(methyloxy)phenyl]-4-methyl-2-{[(1-phenyl-1H-indazol-4-yl)amino]methyl}-2-pentanol] |
| > 10 µM | – | COc1ccc(F)cc1C(C)(C)CC(O)(CNc1cc(C)cc2c1cnn2-c1ccc(F)cc1)C(F)(F)F (single isomer, unassigned) [Example 26-A, 1,1,1-Trifluoro-4-[5-fluoro-2-(methyloxy)phenyl]-2-({[1-(4-fluorophenyl)-6-methyl-1H-indazol-4-yl]amino}methyl)-4-methyl-2-pentanol] |
| > 10 µM | < 0.00316 µM | COc1ccc(F)cc1C(C)(C)CC(O)(CNc1cccc2c1cnn2-c1ccncc1)C(F)(F)F (racemic) [Example 5, 1,1,1-Trifluoro-4-[5-fluoro-2-(methyloxy)phenyl]-4-methyl-2-({[1-(4-pyridinyl)-1H-indazol-4-yl]amino}methyl)-2-pentanol] |
| > 10 µM | – | COc1ccc(F)cc1C(C)(C)CC(O)(CNc1cc(C)cc2c1cnn2-c1ccc(F)cc1F)C(F)(F)F (single isomer, unassigned) [Example 16-B, 2-({[1-(2,4-Difluorophenyl)-6-methyl-1H-indazol-4-yl]amino}methyl)-1,1,1-trifluoro-4-[5-fluoro-2-(methyloxy)phenyl]-4-methyl-2-pentanol] |
| > 10 µM | – | Cc1cc(NCC(O)(CC(C)(C)c2cc(F)ccc2O)C(F)(F)F)c2cnn(-c3cccc(O)c3)c2c1 (single isomer, unassigned) [Example 24-A, 4-Fluoro-2-[4,4,4-trifluoro-3-hydroxy-3-({[1-(3-hydroxyphenyl)-6-methyl-1H-indazol-4-yl]amino}methyl)-1,1-dimethylbutyl]phenol] |
| > 10 µM | – | COc1ccc(F)cc1C(C)(C)CC(O)(CNc1cc(C)cc2c1cnn2-c1ccccc1F)C(F)(F)F (single isomer, unassigned) [Example 25-B, 1,1,1-Trifluoro-4-[5-fluoro-2-(methyloxy)phenyl]-2-({[1-(2-fluorophenyl)-6-methyl-1H-indazol-4-yl]amino}methyl)-4-methyl-2-pentanol] |
| > 10 µM | – | COc1ccc(F)cc1C(C)(C)CC(O)(CNc1cc(C)cc2c1cnn2-c1ccccc1)C(F)(F)F (single isomer, unassigned) [Example 15-A, 1,1,1-Trifluoro-4-[5-fluoro-2-(methyloxy)phenyl]-4-methyl-2-{[(6-methyl-1-phenyl-1H-indazol-4-yl)amino]methyl}-2-pentanol] |
| > 10 µM | – | COc1ccc(F)cc1C(C)(C)CC(O)(CNc1cccc2c1cnn2-c1ccc(F)cc1F)C(F)(F)F (single isomer, unassigned) [Example 4-A, 2-({[1-(2,4-Difluorophenyl)-1H-indazol-4-yl]amino}methyl)-1,1′-trifluoro-4-[5-fluoro-2-(methyloxy)phenyl]-4-methyl-2-pentanol] |
| > 10 µM | – | COc1ccc(F)cc1C(C)(C)CC(O)(CNc1cccc2c1cnn2-c1ccc(F)cc1)C(F)(F)F (single isomer, unassigned) [Example 2-A, 1,1,1-Trifluoro-4-[5-fluoro-2-(methyloxy)phenyl]-2-({[1-(4-fluorophenyl)-1H-indazol-4-yl]amino}methyl)-4-methyl-2-pentanol] |
| > 10 µM | – | CCOC(=O)c1cccc(-n2ncc3c(NCC(O)(CC(C)(C)c4cc(F)ccc4OC)C(F)(F)F)cccc32)c1 (single isomer, unassigned) [Example 6-A, Ethyl 3-(4-{[4-[5-fluoro-2-(methyloxy)phenyl]-2-hydroxy-4-methyl-2-(trifluoromethyl)pentyl]amino}-1H-indazol-1-yl)benzoate] |
